From PubChem BioAssay AID1963864 (Molecular Pharmacology Branch, DTP, NCI, 2024)

Tested on: KRAS PDC multicell spheroid viability
Assay: Anticancer human tumor 521955-158-R6-J3-PDC patient-derived pancreatic carcinoma cell line growth inhibition [KRAS2]
Conditions: for IC50: curve of first compound; for viability, T/C: stronger effect = lower value
How it was run: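 KRAS-mutant tumor cells were grown as spheroids with HUVEC endothelial cells and human MSCs as stroma. Targeted agents were tested alone and with KRAS pathway inhibitors. Doses started at or near clinical Cmax, or 10 microM, descending half-log.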

[1] = second compound 0.1 µM, first compound 0.0316 µM
[2] = second compound 0.1 µM, first compound 0.1 µM
[3] = second compound 0.1 µM, first compound 0.316 µM
[4] = second compound 0.1 µM, first compound 1 µM
[5] = second compound 0.1 µM, first compound 3.16 µM
[6] = second compound 0.1 µM, first compound 10 µM
[7] = second compound 0.316 µM, first compound 0.0316 µM
[8] = second compound 0.316 µM, first compound 0.1 µM
[9] = second compound 0.316 µM, first compound 0.316 µM
[10] = second compound 0.316 µM, first compound 1 µM
[11] = second compound 0.316 µM, first compound 3.16 µM
[12] = second compound 0.316 µM, first compound 10 µM
[13] = second compound 1 µM, first compound 0.0316 µM
[14] = second compound 1 µM, first compound 0.1 µM
[15] = second compound 1 µM, first compound 0.316 µM
[16] = second compound 1 µM, first compound 1 µM
[17] = second compound 1 µM, first compound 3.16 µM
[18] = second compound 1 µM, first compound 10 µM
[19] = second compound 3.16 µM, first compound 0.0316 µM
[20] = second compound 3.16 µM, first compound 0.1 µM
[21] = second compound 3.16 µM, first compound 0.316 µM
[22] = second compound 3.16 µM, first compound 1 µM
[23] = second compound 3.16 µM, first compound 3.16 µM
[24] = second compound 3.16 µM, first compound 10 µM
[25] = second compound 10 µM, first compound 0.0316 µM
[26] = second compound 10 µM, first compound 0.1 µM
[27] = second compound 10 µM, first compound 0.316 µM
[28] = second compound 10 µM, first compound 1 µM
[29] = second compound 10 µM, first compound 3.16 µM
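Further: drug exposure lasted seven days.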
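Wherever viability, T/C is given: 100% = DMSO vehicle wells and lower means fewer viable cells.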

Structure (SMILES) | IC50 (second compound 0.1 µM) [µM] | IC50 (second compound 0.316 µM) [µM] | IC50 (second compound 1 µM) [µM] | IC50 (second compound 3.16 µM) [µM] | viability, T/C [1] [%] | viability, T/C [2] [%] | viability, T/C [3] [%] | viability, T/C [4] [%] | viability, T/C [5] [%] | viability, T/C [7] [%] | viability, T/C [8] [%] | viability, T/C [9] [%] | viability, T/C [10] [%] | viability, T/C [11] [%] | viability, T/C [13] [%] | viability, T/C [14] [%] | viability, T/C [15] [%] | viability, T/C [16] [%] | viability, T/C [17] [%] | viability, T/C [19] [%] | further results
COC(=O)c1ccc2c(C(=Nc3ccc(N(C)C(=O)CN4CCN(C)CC4)cc3)c3ccccc3)c(O)[nH]c2c1 + C=CC(=O)N1CCN(c2nc(OCC3CCCN3C)nc3c2CCN(c2cccc4cccc(C)c24)C3)CC1CC#N | 2.84 | 2.84 | 1.83 | < 0.0316 | 91.8 | 116 | 102 | 111 | 44.3 | 79.7 | 102 | 103 | 106 | 45.1 | 74.3 | 75.5 | 90.2 | 95.4 | 19.1 | 36.9 | IC50 (second compound 0.0316 µM): 3.09 µM; viability, T/C (second compound 0.0316 µM, first compound 0.0316 µM): 96.2%; viability, T/C (second compound 0.0316 µM, first compound 0.1 µM): 110%; viability, T/C (second compound 0.0316 µM, first compound 0.316 µM): 116%; viability, T/C (second compound 0.0316 µM, first compound 1 µM): 123%; viability, T/C (second compound 0.0316 µM, first compound 3.16 µM): 48.8%; viability, T/C (second compound 0.0316 µM, first compound 10 µM): 0.2%; viability, T/C [6]: 1.53%; viability, T/C [12]: 1.91%; viability, T/C [18]: 1.01%; viability, T/C [20]: 31.4%; viability, T/C [21]: 37.8%; viability, T/C [22]: 5.71%; viability, T/C [23]: 1.1%; viability, T/C [24]: 0.76%
CC1(C)CCC(CN2CCN(c3ccc(C(=O)NS(=O)(=O)c4ccc(NCC5CCOCC5)c([N+](=O)[O-])c4)c(Oc4cnc5[nH]ccc5c4)c3)CC2)=C(c2ccc(Cl)cc2)C1 + CC1OCC2(CCN(c3cnc(Sc4ccnc(N)c4Cl)c(N)n3)CC2)C1N | 7.01 | 5.82 | 5.51 | 4.36 | 96 | 89.7 | 95.3 | 77.6 | 70.5 | 86.2 | 98.2 | 89 | 87 | 62 | 102 | 94.7 | 103 | 99 | 71.1 | 115 | IC50 (second compound 10 µM): 2.84 µM; viability, T/C [6]: 41.3%; viability, T/C [12]: 39.3%; viability, T/C [18]: 27.3%; viability, T/C [20]: 120%; viability, T/C [21]: 121%; viability, T/C [22]: 116%; viability, T/C [23]: 64.2%; viability, T/C [24]: 13.1%; viability, T/C [25]: 107%; viability, T/C [26]: 109%; viability, T/C [27]: 114%; viability, T/C [28]: 107%; viability, T/C [29]: 44.3%; viability, T/C (second compound 10 µM, first compound 10 µM): 3.41%
CC(=O)OC12COC1CC(O)C1(C)C(=O)C(O)C3=C(C)C(OC(=O)C(O)C(NC(=O)OC(C)(C)C)c4ccccc4)CC(O)(C(OC(=O)c4ccccc4)C21)C3(C)C (stereo not given) + CC1OCC2(CCN(c3cnc(Sc4ccnc(N)c4Cl)c(N)n3)CC2)C1N | > 3.16 | > 3.16 | > 3.16 | > 3.16 | 65.4 | 74.1 | 76.1 | 95.5 | 114 | 84.2 | 72.5 | 74.9 | 87.8 | 108 | 83.4 | 69.7 | 78.6 | 96.7 | 114 | 86.6 | IC50 (second compound 10 µM): > 3.16 µM; viability, T/C (second compound 0.1 µM, first compound 0.01 µM): 82.9%; viability, T/C (second compound 0.316 µM, first compound 0.01 µM): 83%; viability, T/C (second compound 1 µM, first compound 0.01 µM): 79.8%; viability, T/C (second compound 3.16 µM, first compound 0.01 µM): 88.7%; viability, T/C [20]: 87.3%; viability, T/C [21]: 94.4%; viability, T/C [22]: 106%; viability, T/C [23]: 109%; viability, T/C (second compound 10 µM, first compound 0.01 µM): 99.7%; viability, T/C [25]: 88.9%; viability, T/C [26]: 95%; viability, T/C [27]: 99%; viability, T/C [28]: 96.1%; viability, T/C [29]: 118%
